This passage reports activity results from US8518980B2, “Treatment of Duchenne muscular dystrophy” (Summit Corporation PLC, priority 2006, dated 2013).

Bounds are passed on as bounds.

The assay concerns Utrophin A promoter linked to a luciferase reporter gene (H2K/mdx/Utro A reporter cell line). Briefly: Luciferase reporter assay (murine H2K cells). The following applies: Mus musculus, H2K mdx. (A reporter such as luciferase makes a cellular process visible.)
On to `Cc1ccc2oc(-c3cc(NC(=O)c4cncc(Br)c4)ccc3O)nc2c1` [Example 684, 5-bromo-N-(4-hydroxy-3-(5-methylbenzo[d]oxazol-2-yl)phenyl)nicotinamide], for which the activity at 10 µM was in the range of 201 to 300%.

On to `Clc1ccc(-c2nc3ccccc3s2)c(Cl)c1` [Example 595, 2-(2,4-Dichlorophenyl)benzo[d]thiazole], for which the activity at 10 µM lay within 201 to 300%.

Consider `CN(C)S(=O)(=O)c1ccc2nc(NC(=O)c3cccs3)sc2c1` [Example 683, N-(6-(N,N-dimethylsulfamoyl)benzo[d]thiazol-2-yl)thiophene-2-carboxamide], for which the activity at 10 µM fell in the range of 201 to 300%.

`COc1ccc(-c2nc3cc([N+](=O)[O-])ccc3o2)cc1OC` [Example 537, 2-(3,4-dimethoxyphenyl)-5-nitrobenzo[d]oxazole]: the activity at 10 µM is < 200%.

`O=C(Cc1cccs1)Nc1ccc(-c2nc3ccccc3[nH]2)cc1` [Example 493, N-(4-(1H-benzo[d]imidazol-2-yl)phenyl)-2-(thiophen-2-yl)acetamide]: the activity at 10 µM was < 200%.

`Cc1ccc(-c2nc3ccccc3[nH]2)cc1NC(=O)C(F)(F)F` [Example 568, N-(5-(1H-benzo[d]imidazol-2-yl)-2-methylphenyl)-2,2,2-trifluoroacetamide]: the activity at 10 µM is 301 to 400%.

`Cc1nc2ccc(NC(=O)NC(=O)c3ccccc3Cl)cc2o1` [Example 468, 2-chloro-N-(2-methylbenzo[d]oxazol-6-ylcarbamoyl)benzamide]: the activity at 10 µM was < 200%.

On to `CC(=O)c1c(C)nc(Nc2nc3ccccc3o2)nc1C` [Example 681, 1-(2-(benzo[d]oxazol-2-ylamino)-4,6-dimethylpyrimidin-5-yl)ethanone], for which the activity at 10 µM fell in the range of 201 to 300%.

With `CNC(=O)Nc1ccc2nc(C)oc2c1` [Example 467, 1-methyl-3-(2-methylbenzo[d]oxazol-6-yl)urea], the activity at 10 µM was < 200%.

For the compound `Cc1ccc2nc(-c3ccc(NC(=O)c4cccs4)cc3)oc2c1` [Example 672, N-(4-(6-methylbenzo[d]oxazol-2-yl)phenyl)thiophene-2-carboxamide], the activity at 10 µM was 201 to 300%.

Regarding `O=[N+]([O-])c1ccc2oc(-c3ccc(F)cc3)nc2c1` [Example 525, 2-(4-fluorophenyl)-5-nitrobenzo[d]oxazole], the activity at 10 µM was < 200%.

For the compound `O=C(Nc1cccc(-c2nc3ccccc3[nH]2)c1)c1cccs1` [Example 504, N-(3-(1H-benzo[d]imidazol-2-yl)phenyl)thiophene-2-carboxamide], the activity at 10 µM was < 200%.

For `c1ccc(OCc2nc3ccccc3s2)cc1` [Example 633, 2-(phenoxymethyl)benzo[d]thiazole], the activity at 10 µM was 301 to 400%.

Take `CCSc1nc2ccc(N)cc2s1` [Example 563, 2-(ethylthio)benzo[d]thiazol-6-amine]: the activity at 10 µM is 201 to 300%.

In the case of `CC(=O)Nc1ccc(-c2nc3cc(C)cc(C)c3o2)cc1` [Example 529, N-(4-(5,7-dimethylbenzo[d]oxazol-2-yl)phenyl)acetamide], the activity at 10 µM was 201 to 300%.

In the case of `CC(C)(C)c1ccc2oc(-c3ccc(N)cc3)nc2c1` [Example 593, 4-(5-Tert-butylbenzo[d]oxazol-2-yl)aniline], the activity at 10 µM lay within 301 to 400%.

Take `COc1ccc(-c2nc3cc(N)ccc3o2)cc1` [Example 512, 2-(4-methoxyphenyl)benzo[d]oxazol-5-amine]: the activity at 10 µM was < 200%.

Regarding `COc1ccc(-c2nc3ccccc3s2)cc1` [Example 582, 2-(4-Methoxyphenyl)benzo[d]thiazole], the activity at 10 µM was > 401%.

Turning to `COc1ccc(-c2nc3cc(C)ccc3o2)cc1` [Example 675, 2-(4-methoxyphenyl)-5-methylbenzo[d]oxazole], the activity at 10 µM lay within 201 to 300%.

On to `Cc1ccc(S(=O)(=O)Nc2ccc3[nH]c(-c4ccco4)nc3c2)cc1` [Example 536, N-(2-(furan-2-yl)-1H-benzo[d]imidazol-5-yl)-4-methylbenzenesulfonamide], for which the activity at 10 µM is < 200%.

Consider `O=[N+]([O-])c1ccc2nc(-c3ccccc3)[nH]c2c1` [Example 604, 6-Nitro-2-phenyl-1H-benzo[d]imidazole], for which the activity at 10 µM lay within 301 to 400%.

Take `O=C(Nc1ccc2c(c1)OCO2)c1sc2ccccc2c1Cl` [Example 618, N-(benzo[d][1,3]dioxol-5-yl)-3-chlorobenzo[b]thiophene-2-carboxamide]: the activity at 10 µM is > 401%.

For the compound `C(=C\c1nc2ccccc2[nH]1)/c1ccccc1` [Example 547, (E)-2-styryl-1H-benzo[d]imidazole], the activity at 10 µM lay in the range of 301 to 400%.

On to `CN(C)c1ccc(-c2nc3cc(N)ccc3o2)cc1` [Example 491, 2-(4-(dimethylamino)phenyl)benzo[d]oxazol-5-amine], for which the activity at 10 µM lay in the range of 201 to 300%.

In the case of `Cc1ccc2nc(-c3ccc(NC(=O)c4ccccc4C(=O)O)cc3)sc2c1` [Example 545, 2-(4-(6-methylbenzo[d]thiazol-2-yl)phenylcarbamoyl)benzoic acid], the activity at 10 µM is < 200%.

Regarding `Nc1ccc(-c2nc3ccccc3o2)c(O)c1` [Example 484, 5-amino-2-(benzo[d]oxazol-2-yl)phenol], the activity at 10 µM was 201 to 300%.

In the case of `Cc1ccc2oc(-c3ccc(Cl)c(N)c3)nc2c1` [Example 636, 2-chloro-5-(5-methylbenzo[d]oxazol-2-yl)aniline], the activity at 10 µM fell in the range of 301 to 400%.

On to `Cc1ccc2oc(-c3ccc(Cl)c(NC(=O)c4ccco4)c3)nc2c1` [Example 677, N-(2-chloro-5-(5-methylbenzo[d]oxazol-2-yl)phenyl)furan-2-carboxamide], for which the activity at 10 µM was 201 to 300%.

For `CN(C)c1ccc(-c2nc3cc([N+](=O)[O-])ccc3[nH]2)cc1` [Example 509, N,N-dimethyl-4-(5-nitro-1H-benzo[d]imidazol-2-yl)aniline], the activity at 10 µM was 201 to 300%.

Take `Cc1ccc2[nH]c(-c3ccc(N)cc3)nc2c1` [Example 532, 4-(5-methyl-1H-benzo[d]imidazol-2-yl)aniline]: the activity at 10 µM was < 200%.

As for `CCCS(=O)(=O)c1ccc2oc(-c3ccc(Cl)cc3)nc2c1` [Example 578, 2-(4-chlorophenyl)-5-(propylsulfonyl)benzo[d]oxazole], the activity at 10 µM was < 200%.

Turning to `O=C(Nc1ccccc1-c1nc2ccccc2[nH]1)c1ccc(S(=O)(=O)N2CCCC2)cc1` [Example 511, N-(2-(1H-benzo[d]imidazol-2-yl)phenyl)-4-(pyrrolidin-1-ylsulfonyl)benzamide], the activity at 10 µM was < 200%.

On to `c1ccc2nc(-c3nc4ccccc4s3)ccc2c1` [Example 639, 2-(quinolin-2-yl)benzo[d]thiazole], for which the activity at 10 µM lay in the range of 301 to 400%.

In the case of `Nc1ccc2oc(-c3cccc4ccccc34)nc2c1` [Example 577, 2-(naphthalen-1-yl)benzo[d]oxazol-5-amine], the activity at 10 µM is < 200%.

For the compound `CCc1ccc2oc(-c3cc(N)ccc3O)nc2c1` [Example 551, 4-amino-2-(5-ethylbenzo[d]oxazol-2-yl)phenol], the activity at 10 µM was < 200%.

Consider `CC(C)C(=O)Nc1ccc(-c2nc3ccccc3s2)cc1` [Example 651, N-(4-(benzo[d]thiazol-2-yl)phenyl)isobutyramide], for which the activity at 10 µM was 301 to 400%.

As for `COc1ccccc1-c1nc2ccccc2s1` [Example 522, 2-(2-methoxyphenyl)benzo[d]thiazole], the activity at 10 µM is < 200%.

`COc1ccc(-c2nc3ccccc3s2)cc1N` [Example 597, 5-(Benzo[d]thiazol-2-yl)-2-methoxyaniline]: the activity at 10 µM is 301 to 400%.

Consider `c1ccc(OCc2nc3ccccc3[nH]2)cc1` [Example 471, 2-(phenoxymethyl)-1H-benzo[d]imidazole], for which the activity at 10 µM lay in the range of 201 to 300%.

In the case of `Cc1cc(-c2nc3ccccc3o2)ccc1[N+](=O)[O-]` [Example 607, 2-(3-Methyl-4-nitrophenyl)benzo[d]oxazole], the activity at 10 µM is > 401%.

Consider `Clc1ccc(-c2nc3cc(CN4CCCCC4)ccc3o2)cc1` [Example 469, 2-(4-chlorophenyl)-5-(piperidin-1-ylmethyl)benzo[d]oxazole], for which the activity at 10 µM was < 200%.

In the case of `CC(=O)Nc1ccc(-c2nc3cc(C)ccc3o2)cc1` [Example 662, N-(4-(5-methylbenzo[d]oxazol-2-yl)phenyl)acetamide], the activity at 10 µM was 301 to 400%.

As to `CC(=O)Nc1ccc(-c2nc3cc(Cl)c(NC(C)=O)cc3[nH]2)cc1` [Example 556, N-(4-(6-acetamido-5-chloro-1H-benzo[d]imidazol-2-yl)phenyl)acetamide], the activity at 10 µM was < 200%.

Consider `Nc1cccc(-c2nc3cc(Cl)ccc3o2)c1` [Example 622, 3-(5-chlorobenzo[d]oxazol-2-yl)aniline], for which the activity at 10 µM is > 401%.

Consider `Cc1cc2nc(-c3ccc(N)cc3)oc2cc1C` [Example 485, 4-(5,6-dimethylbenzo[d]oxazol-2-yl)aniline], for which the activity at 10 µM lay in the range of 201 to 300%.

`Nc1ccc(-c2nc3ccccc3s2)cc1` [Example 601, 4-(Benzo[d]thiazol-2-yl)aniline]: the activity at 10 µM lay within 301 to 400%.

Take `CCS(=O)(=O)c1ccc2oc(S)nc2c1` [Example 574, 5-(ethylsulfonyl)benzo[d]oxazole-2-thiol]: the activity at 10 µM is < 200%.

As for `CSc1ccc(-c2nc3ccccc3[nH]2)cc1` [Example 543, 2-(4-(methylthio)phenyl)-1H-benzo[d]imidazole], the activity at 10 µM lay in the range of 201 to 300%.

Turning to `Nc1ccc(Oc2ccc(-c3nc4ccccc4[nH]3)cc2)cc1` [Example 557, 4-(4-(1H-benzo[d]imidazol-2-yl)phenoxy)aniline], the activity at 10 µM is > 401%.

For the compound `CCc1ccc2oc(-c3ccc(C)c(N)c3)nc2c1` [Example 625, 5-(5-ethylbenzo[d]oxazol-2-yl)-2-methylaniline], the activity at 10 µM was > 401%.

As to `Cc1ccc2nc(-c3cccc(NC(=O)c4ccco4)c3)[nH]c2c1` [Example 538, N-(3-(6-methyl-1H-benzo[d]imidazol-2-yl)phenyl)furan-2-carboxamide], the activity at 10 µM was < 200%.

For the compound `CCOc1ccc(NCc2nc3ccccc3n2C)cc1` [Example 676, 4-ethoxy-N-((1-methyl-1H-benzo[d]imidazol-2-yl)methyl)aniline], the activity at 10 µM was 201 to 300%.
